Source: patent publication US5359073A, “Substituted-phenyl (N,N'-cycloalkyl/alkyl carboxamide)-1H/3H-imidazo[4,5-b]pyridine compounds as PAF antagonists” (G. D. Searle & Co., priority 1992, dated 1994)
pIC50: −log10 of the molar value.

What was measured:
[1] = target: T1, PAF receptor (human platelet membrane) (Homo sapiens, UniProt P25105); experiment: Assay A: Human Platelet Receptor Binding (inhibition of specific [^3 H]PAF binding to human platelet membrane preparation); settings: for pIC50: human platelet membranes, 0.75 nM [^3 H]PAF, 30 minutes at 24° C., pH 7.4
T1 construct: The platelets were broken by freezing in a dry ice-ethanol bath; tissue Lifesource, Inc. (Glenview, Ill.); host or cells: human packed platelets (membrane preparation)
T1 sequence (P25105 whole entry): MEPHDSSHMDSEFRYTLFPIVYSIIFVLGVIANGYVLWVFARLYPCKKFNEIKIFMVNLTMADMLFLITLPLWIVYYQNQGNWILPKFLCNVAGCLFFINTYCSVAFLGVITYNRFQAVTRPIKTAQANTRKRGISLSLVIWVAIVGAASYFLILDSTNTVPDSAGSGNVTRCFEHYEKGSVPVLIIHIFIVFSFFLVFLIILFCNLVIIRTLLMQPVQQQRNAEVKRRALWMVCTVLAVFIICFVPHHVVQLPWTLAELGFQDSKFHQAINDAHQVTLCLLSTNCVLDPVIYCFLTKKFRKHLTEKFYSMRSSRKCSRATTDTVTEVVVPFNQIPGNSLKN
Protocol: Compounds of the invention were evaluated for their ability to inhibit specific binding of [^3 H]PAF to human platelet membrane preparation. Human packed platelets were obtained from Lifesource, Inc. (Glenview, Ill.) and washed 3 times with 10 mM Trizma pH 7.0, 2 mM EDTA (dipotassium salt), 150 mM KCL and then once with 10 mM Trizma 7.4, 20 mM CaCL2. The platelets were broken by freezing in a dry ice-ethanol bath, followed by thawing in 24° C. water baths. The preparation was centrifugation (40,000 x g, 20 minutes, 4° C.) and the pellet resuspended in 10 mM Trizma 7.4, 20 mM CaCL2, 5 mg/ml human albumin. Protein concentration in the platelet membrane preparation was determined by the Lowry method [ref]. Aliquots of the membrane preparation were stored at -70° C. Each preparation was characterized for PAF receptor number and dissociation constant (Kd). In binding assays 5 μl of test compound, solubilzed in DMSO, was added to polypropylene tubes along with 0.75 nM [^3 H]PAF and 200 mcl [0.075 nM] of membranes and 95 μl 10 mM Trizma 7.4, 20 mM CaCL2, 5 mg/ml human albumin. Tubes were incubated for 30 minutes at 24° C. The incubation was terminated by adding 4 ml of ice-cold 10 mM Trizma DH 7.4, 20 mM CaCL2 and 20 mg/ml BSA prior to vacuum filtration using Whatman GF/C filters. Filters were prepared and counted for a scintillation counter. All DPM values were corrected for background and isotope decay. Triplicate determinations for single doses were averaged. The amount of non-specific binding was subtracted from all dose averages, giving an amount of specific binding in all cases. The IC50 values for compounds of the invention determined by the Allfit program using percent displacement data. Allfit is a `basic` computer program for simultaneous curve fitting of a family of signoidal dose-response curves using the four parameter logistic equation.

[2] = tested on: PAF-induced aggregation of human platelets; experiment: Assay B: Human Platelet Aggregation Inhibition (PAF-induced aggregation in human platelet-rich plasma); format: cell-based; settings: 37°
Protocol: Compounds of the invention were evaluated for their ability to inhibit PAF-induced aggregation of human platelets in a human-platelet-rich plasma. Venous blood was collected from donors who fasted for 8 hours and were instructed not to use antiinflammatory drugs for 2 weeks prior to blood draw. Blood was collected into syringes containing 0.1 ml of 3.8% [w/v] citrate and centrifuged in polypropylene tubes at 150xg for 20 minutes at room temperature. The platelet rich plasma [PRP] was collected and let sit for 20 minutes at room temperature. Platelet activating factor [PAF] was diluted in 0.9% NaCl with 0.25% bovine serum albumin. Silicon treated cuvettes with stir bars were placed in the 37° heating block of the platelet aggregometer [Bio/Data Corporation, Platelet Aggregation Profiler, Model PAP-4]. PRP and test compound were added to cuvettes and aggregation monitored for 10-15 seconds at 37° with stirring. PAF was added and aggregation monitored for an additional 3 minutes. Peak aggregation was considered the peak of the first aggregation wave usually 45-60 seconds after PAF addition. Inhibition of aggregation was determined by the following: 1-[(% aggregation in the presence of compound).div.(% maximal aggregation)]. A log/logit transformation was used to determine half maximal inhibitory concentration of a test compound [IC50 ].

[3] = target: T2, [^3 H]PAF receptors on human neutrophil membrane (Homo sapiens, UniProt P25105); experiment: Assay C: Human Neutrophil Receptor Binding (inhibition of specific [^3 H]PAF binding to human neutrophil membrane); settings: human neutrophil membranes, 0.9 nM [^3 H]PAF, 30 minutes at 24°, pH 7.4
T2 construct: Human neutrophils were isolated from venous blood by dextran sedimentation; from tissue; host or cells: human neutrophils from venous blood (membrane preparation)
T2 sequence (P25105 whole entry): as above
Protocol: Compounds of the invention were evaluated for their ability to inhibit PAF-induced specific binding of [^3 H]PAF to receptors on human neutrophil membrane. Human neutrophils were isolated from venous blood by dextran sedimentation followed by density gradient centrifugation using Ficoll-Hypaque [J. Biol. Chem., 254:7865-7869, 1979]. Residual red blood cells were removed by hypotonic lysis. Neutrophils were suspended in 50 mM Tris-HCl buffer, pH 7.7, and cells disrupted by sonication for 15 seconds on ice. Unbroken cells and nuclei were removed by slow speed centrifugation [1000xg, 10 min. 4°]. The resultant supernatant was centrifuged at 100,000xg for 60 minutes at 4°. The pellet was suspended in 10 mM Tris-HCl, pH 7.4, with 10 mM MgCl2. Protein content was determined by the method of Lowry [J. Biol. Chem., 193:265-275, 1951]. Membranes were characterized for the concentration of binding sites [Bmax] and affinity for the ligand [Kd] using [^3 H]PAF by Scatchard analysis. Binding assays were conducted by incubating 50 mcg of membranes with 0.9 nM [^3 H]PAF and test compounds in 10 mM Tris-HCl buffer, pH 7.4, containing 0.1% bovine serum albumin. Nonspecific binding was determined by the addition of 1 μM PAF. Binding assay were done for 30 minutes at 24°. The assay was terminated by filtration-through a Whatman GF/C glass filters and radioactivity determined by liquid scintillation counting.

pIC50 [1]	SMILES	also measured
5.99	COc1cc(C(=O)N(C2CCCC2)C2CCCC2)ccc1Cn1cnc2cccnc21 [Example 1]	–
7.11	COc1cc(C(=O)N(C2CCCC2)C2CCCC2)ccc1Cn1cnc2ncccc21 [Example 2, N, N-dicyclopentyl-4-(1H-imidazo[4,5-b]pyridin-1-ylmethyl)-3-methoxybenzamide]	pIC50 [2]: 6.64
8.70	COc1cc(Cn2cnc3cccnc32)ccc1C(=O)N(C(C)C)C1CCCCC1 [Example 3, N-cyclohexyl-4-(3H-imidazo[4,5-b]pyridin-3-ylmethyl)-2-methoxy-N-(1-methylethyl)benzamide]	pIC50 [2]: 8.15; pIC50 [3]: 9.30
6.82	COc1cc(Cn2cnc3ncccc32)ccc1C(=O)N(C(C)C)C1CCCCC1 [Example 4, N-cyclohexyl-4-(1H-imidazo[4,5-b]pyridin-1-ylmethyl)-2-methoxy-N-(1-methylethyl)benzamide]	–
6.38	COc1cc(C(=O)N(C(C)C)C2CCCCC2)ccc1Cn1cnc2cccnc21 [Example 5, N-cyclohexyl-4-(3H-imidazo[4,5-b]pyridin-3-ylmethyl)-3-methoxy-N-(1-methylethyl)benzamide]	–
8.22	COc1cc(C(=O)N(C(C)C)C2CCCCC2)ccc1Cn1cnc2ncccc21 [Example 6, N-cyclohexyl-4-(1H-imidazo[4,5-b]pyridin-1-ylmethyl)-3-methoxy-N-(1-methylethyl)benzamide]	pIC50 [2]: 6.95; pIC50 [3]: 8.10
7.14	COc1cc(Cn2cnc3cccnc32)ccc1C(=O)N(C1CCCC1)C1CC(C)CC(C)C1 (stereo not shown) [Example 7, N-cyclopentyl-N-(3,5-dimethylcyclohexyl)-4-(3H-imidazo[4,5-b]pyridin-3-ylmethyl)-2-methoxybenzamide]	–
7.46	COc1cc(Cn2cnc3ncccc32)ccc1C(=O)N(C1CCCC1)C1CC(C)CC(C)C1 (stereo not shown) [Example 8, N-cyclopentyl-N-(3,5-dimethylcyclohexyl)-4-(1H-imidazo[4,5-b]pyridin-1-ylmethyl)-2-methoxybenzamide]	pIC50 [2]: 8.15; pIC50 [3]: 7.64
6.32	Cc1cc(C(=O)N(C2CCCCC2)C2CCCC2)ccc1Cn1cnc2ncccc21 [Example 9, N-cyclohexyl-N-cyclopentyl-4-(1H-imidazo[4,5-b]pyridin-1-ylmethyl)-3-methylbenzamide]	–
5.28	Cc1cc(C(=O)N(C2CCCCC2)C2CCCC2)ccc1Cn1cnc2cccnc21 [Example 10, N-cyclohexyl-N-cyclopentyl-4-(3H-imidazo[4,5-b]pyridin-3-ylmethyl)-3-methylbenzamide]	–
8.05	COc1cc(C(=O)N(C(C)C)C2CCCCC2)ccc1Cn1c(C)nc2ncccc21 [Example 11, N-cyclohexyl-3-methoxy-N-(1-methylethyl)-4-[(2-methyl-1H-imidazo[4,5-b]pyridin-1-yl)methyl]benzamide]	–
5.94	COc1cc(C(=O)N(C(C)C)C2CCCCC2)ccc1Cn1c(C)nc2cccnc21 [Example 12, N-cyclohexyl-3-methoxy-N-(1-methylethyl)-4-[(2-methyl-3H-imidazo [4,5-b]pyridin-3-yl)methyl]benzamide]	–
6.69	COc1cc(Cn2cnc3ncccc32)ccc1C(=O)N(C1CCCCC1)C1CCCC1 [Example 13, N-cyclohexyl-N-cyclopentyl-4-(1H-imidazo[4,5-b]pyridin-1-ylmethyl)-2-methoxybenzamide]	–
6.40	COc1cc(C(=O)N(C(C)C)C2CCCCC2)ccc1Cn1c(-c2ccccc2Cl)nc2ncccc21 [Example 14, 4-[[2-(2-chlorophenyl)-1H-imidazo[4,5-b]pyridin-1-yl]methyl]-N-cyclohexyl-3-methoxy-N-(1-methylethyl)benzamide]	–
6.24	COc1cc(C(=O)N(C(C)C)C2CCCCC2)ccc1Cn1c(-c2ccccc2Cl)nc2cccnc21 [Example 15, 4-[[2-(2-chlorophenyl) -3H-imidazo[4,5-b]pyridin-3yl]methyl]-N-cyclohexyl-3-methoxy-N-(1-methylethyl)benzamide]	–
8.22	COc1cc(C(=O)N(C(C)C)C2CCCCC2)ccc1Cn1c(CO)nc2ncccc21 [Example 17, N-cyclohexyl-4-[[2-(hydroxymethyl)-1H-imidazo [4,5-b]pyridin-1-yl]methyl]-3-methoxy-N-(1-methylethyl)benzamide]	–
7.96	COc1cc(C(=O)N(C(C)C)C2CCCCC2)ccc1Cn1c(CO)nc2cccnc21 [Example 18, N-cyclohexyl-4-[[2-(hydroxymethyl)-3H-imidazo [4,5-b]pyridin-3-yl]methyl]-3-methoxy-N-(1-methylethyl)benzamide]	–
8.52	COc1cc(C(=O)N(C(C)C)C2CCCCC2)ccc1Cn1c(CN(C)C)nc2ncccc21 [Example 19, N-cyclohexyl-4-[[2-[(dimethylamino)methyl]-1H-imidazo[4,5-b]pyridin-1-yl]methyl]-3-methoxy-N-(1-methylethyl)benzamide]	–
8.00	COc1cc(C(=O)N(C(C)C)C2CCCCC2)ccc1Cn1c(CN(C)C)nc2cccnc21 [Example 20, N-cyclohexyl-4-[[2-[(dimethylamino)methyl]-3H-imidazo[4,5-b]pyridin-3-yl]methyl]-3-methoxy-N-(1-methylethyl)benzamide]	inhibition at 0.01 µM ([1]; at 10 nM, two-run average): 62%
8.05	COCc1nc2ncccc2n1Cc1ccc(C(=O)N(C(C)C)C2CCCCC2)cc1OC [Example 21, N-cyclohexyl-3-methoxy-4-[[2-(methoxymethyl)-1H-imidazo [4,5-b]pyridin-1-yl]methyl]-N-(1-methylethyl)benzamide]	–
7.06	COCc1nc2cccnc2n1Cc1ccc(C(=O)N(C(C)C)C2CCCCC2)cc1OC [Example 22, N-cyclohexyl-3-methoxy-4-[[2-(methoxymethyl)-3H-imidazo[4,5-b]pyridin-3-yl]methyl]-N-(1-methylethyl)benzamide]	–
7.89	COc1cc(C(=O)N(C(C)C)C2CCCCC2)ccc1Cn1c(N(C)C)nc2ncccc21 [Example 23, N-cyclohexyl-4-[[2-(dimethylamino)-1H-imidazo[4,5-b]pyridin-1-yl]methyl]-3-methoxy-N-(1-methylethyl)benzamide]	–

SMILES	pIC50 [1]	also measured
COc1cc(C(=O)N(C(C)C)C2CCCCC2)ccc1Cn1c(CO[Si](C)(C)C(C)(C)C)nc2ncccc21 [Example 16, N-cyclohexyl-4-[[2-[[[(1,1-dimethyethyl)dimethylsilyl]oxy]methyl]-1H-imidazo[4,5-b]pyridin-1-yl]methyl]-3-methoxy-N-(1-methylethyl)benzamide]	7.29	–
